Reference: patent US20240268388A1, “AGRICULTURAL AND HORTICULTURAL FUNGICIDAL COMPOSITION” (NIPPON SODA CO., LTD., priority 2021, published 2024)
Read-outs that look alike come from different tables or passages of the source.

How the values were obtained:
[1] = tested on: wheat leaf blight pathogen (Septoria tritici); assay: Fungicidal test for wheat leaf blight (microplate, turbidity at 405 nm); format: cell-based; conditions: for inhibition at 6.3 ppm / inhibition at 12.5 ppm / inhibition at 25 ppm / inhibition at 50 ppm / inhibition at 100 ppm: Zymoseptoria tritici, component (I) alone, read-out: growth inhibition rate; for growth inhibition rate: component (II) alone
Procedure: Compounds of component (I) and component (II) were dissolved in dimethyl sulfoxide at 10,000 ppm and diluted with water to the prescribed concentration to prepare a chemical agent solution. A mixture of the prescribed concentration of the chemical agent solution, wheat leaf blight pathogen (Septoria tritici) conidia, and malt extract was prepared on a microplate and incubated at 20° C. in the dark for 3 days. The turbidity at a wavelength of 405 nm was measured with a microplate reader, and the growth of wheat leaf blight pathogen was compared with that of no treatment control to determine the growth inhibition rate. The results are shown in Tables 2 to 7, along with the expected values calculated as below.
Each expected value was calculated from the fungicidal efficacy of a single application of the compound of component (I) and the fungicidal efficacy of a single application of compound of component (II) by using Colby's equation (S. R. Colby, Calculating synergistic and antagonistic responses of herbicide combinations, Weeds, 15, 20-22 pp (1967)).
[formula] • where E represents the expected value of the growth inhibition rate (%) for the composition containing component (I) and component (II), M represents the growth inhibition rate (%) when the component (I) is used alone, and N represents the growth inhibition rate (%) when the component (II) is used alone. When the measured growth inhibition rate (%) for the composition containing component (I) and component (II) is greater than the expected value E, the composition containing components (I) and component (II) should exert a synergistic effect.

[2] = tested on: soybean rust pathogen (Phakopsora pachyrhizi); assay: Soybean rust control test (leaf discs); format: in vivo
Procedure: Compounds of component (I) and component (II) were dissolved in dimethyl sulfoxide and diluted with water to the prescribed concentration to prepare a chemical agent solution. A mixture of the prescribed concentration of the chemical agent solution and sterile water was prepared on a microplate, and leaf discs cut from soybean leaves were floated on the microplate. Uredospores of soybean rust pathogen (Phakopsora pachyrhizi) were inoculated and incubated at 25° C. for 9 days. The area percentage of lesions was determined by observing uredospore-forming lesions on the leaf discs, and the control value was calculated. The control value was calculated by the following formula:
Control value (%)=100−{Area percentage of lesions in treatment plot/Area percentage of lesions in untreatment plot}×100.
The results are shown in Tables 8 to 18, along with the expected values calculated as below. Each expected values was calculated from the fungicidal efficacy of a single application of compound of component (I) and the fungicidal efficacy of a single application of compound of component (II) by using Colby's equation:
[formula] • where E represents the expected value of the control value for the composition containing component (I) and component (II), M represents the control value (%) when the component (I) is used alone, and N represents the control value (%) when the component (II) is used alone. When the measured control value for the composition containing component (I) and component (II) is greater than the expected value E, the composition containing component (I) and composition (II) should exert a synergistic effect.

[3] = tested on: cucumber anthracnose pathogen (Colletotrichum lagenarium); assay: Fungicidal test for cucumber anthracnose (microplate, turbidity at 405 nm); format: cell-based; conditions: for inhibition at 0.025 ppm / inhibition at 0.1 ppm / inhibition at 0.4 ppm: Colletotrichum orbiculare, read-out: growth inhibition rate
Procedure: The compounds were dissolved in dimethyl sulfoxide to prepare a chemical agent solution.
A mixture of the prescribed concentration of the chemical agent solution, cucumber anthracnose pathogen (Colletotrichum lagenarium) conidia, and Vogel medium was prepared on a microplate and incubated at 20° C. in the dark for 7 days.
Each expected value was calculated using Colby's equation:
[formula] • where E represents the expected value of the growth inhibition rate (%), M represents the growth inhibition rate (%) when the component (I) is used alone, and N represents the growth inhibition rate (%) when the component (II) is used alone.

[4] = component (I) alone, 0.0063 ppm
[5] = Table 14, component (II) alone (component (I): None): Inpyrfluxam 0.00025, Chlorothalonil 0.006, Thiophanate-methyl 0.0001, Tebuconazole 0.000025, Trifloxystrobin 0.0001, Fluazinam 0.006, Prothioconazole 0.000025, Florylpicoxamid 0.0001, Metominostrobin 0.0004 ppm
[6] = Table 15, component (II) alone (component (I): None): Azoxystrobin 0.0001, Inpyrfluxam 0.000025, Chlorothalonil 0.0063, Difenoconazole 0.000025, Cyproconazole 0.000025, Tebuconazole 0.000025, Trifloxystrobin 0.0001, Pyraclostrobin 0.0001, Fluazinam 0.0063, Fluxapyroxad 0.000025, Prothioconazole 0.000025, Florylpicoxamid 0.0001, Benzovindiflupyr 0.000025, Mancozeb 0.0063 ppm
[7] = Table 16, component (II) alone (component (I): None): Inpyrfluxam 0.000025, Chlorothalonil 0.006, Thiophanate-methyl 0.0001, Tebuconazole 0.000025, Trifloxystrobin 0.0001, Fluazinam 0.006, Prothioconazole 0.000025, Florylpicoxamid 0.0001, Metominostrobin 0.0004 ppm
[8] = Table 17, component (II) alone (component (I): None): Inpyrfluxam 0.000026, Chlorothalonil 0.02, Thiophanate-methyl 0.0004, Tebuconazole 0.0001, Trifloxystrobin 0.0001, Fluazinam 0.006, Prothioconazole 0.000025, Florylpicoxamid 0.0001, Metominostrobin 0.0004 ppm
[9] = Table 18, component (II) alone (component (I): None): Azoxystrobin 0.0001, Inpyrfluxam 0.000025, Chlorothalonil 0.0063, Difenoconazole 0.000025, Cyproconazole 0.000025, Tebuconazole 0.000025, Trifloxystrobin 0.0001, Pyraclostrobin 0.0001, Fluazinam 0.0063, Fluxapyroxad 0.000025, Prothioconazole 0.000025, Florylpicoxamid 0.0001, Benzovindiflupyr 0.000025, Mancozeb 0.0063 ppm
[10] = Table 19, component (II) alone (component (I): None): Ipflufenoquin 0.000026, Iminoctadine trialbesilate 0.0032, Cyflufenamid 10, Cyprodinil 0.00013, Potassium bicarbonate 0.08, Thiophanate-methyl 0.08, Picarbutrazox 0.016, Fludioxonil 0.0032, Florylpicoxamid 0.0032, Metyltetraprole 0.08, Mefentrifluconazole 0.4 ppm
[11] = Table 20, component (II) alone (component (I): None): Ipflufenoquin 0.00064, Iminoctadine trialbesilate 0.0032, Cyflufenamid 10, Cyprodinil 0.00013, Potassium bicarbonate 0.08, Thiophanate-methyl 0.4, Picarbutrazox 0.016, Fludioxonil 0.0032, Florylpicoxamid 0.0032, Metyltetraprole 0.08, Mefentrifluconazole 0.4 ppm
[12] = Table 21, component (II) alone (component (I): None): Ipflufenoquin 0.00064, Iminoctadine trialbesilate 0.0032, Cyflufenamid 10, Cyprodinil 0.00013, Potassium bicarbonate 0.08, Thiophanate-methyl 0.4, Picarbutrazox 0.00064, Fludioxonil 0.0032, Florylpicoxamid 0.0032, Metyltetraprole 0.08, Mefentrifluconazole 0.4 ppm
[13] = Table 22, component (II) alone (component (I): None): Ipflufenoquin 0.00064, Iminoctadine trialbesilate 0.0032, Cyflufenamid 10, Cyprodinil 0.00013, Potassium bicarbonate 0.08, Thiophanate-methyl 0.4, Picarbutrazox 0.00064, Fludioxonil 0.0032, Florylpicoxamid 0.0032, Metyltetraprole 0.08, Mefentrifluconazole 0.4 ppm
[14] = Table 23, component (II) alone (component (I): None): Ipflufenoquin 0.00064, Iminoctadine trialbesilate 0.0032, Cyflufenamid 10, Cyprodinil 0.000026, Potassium bicarbonate 0.08, Thiophanate-methyl 0.4, Picarbutrazox 0.00064, Fludioxonil 0.00064, Florylpicoxamid 0.0032, Metyltetraprole 0.08, Mefentrifluconazole 0.4 ppm
[15] = Table 24, component (II) alone (component (I): None): Ipflufenoquin 0.00064, Iminoctadine trialbesilate 0.0032, Cyflufenamid 10, Cyprodinil 0.00013, Potassium bicarbonate 0.08, Thiophanate-methyl 0.4, Picarbutrazox 0.00064, Fludioxonil 0.00013, Florylpicoxamid 0.0032, Metyltetraprole 0.08, Mefentrifluconazole 0.4 ppm

Compound: N#CCON=C1CN(C(=O)Cc2ccc(-c3noc(C(F)(F)F)n3)cc2)C1 [Compound 3]
- inhibition at 6.3 ppm [1]: 32%
- inhibition at 12.5 ppm [1]: 41%
- inhibition at 25 ppm [1]: 42%
- inhibition at 50 ppm [1]: 44%
- inhibition at 100 ppm [1]: 49%
- control value [2, 4]: 12%
- control value ([2]; component (I) alone, 0.025 ppm): 22%
- control value ([2]; component (I) alone, 0.1 ppm): 35%
- control value ([2]; component (I) alone, 0.4 ppm): 85%
- inhibition at 0.025 ppm ([3]; Compound 3 alone): 26%
- inhibition at 0.1 ppm ([3]; Compound 3 alone): 9%
- inhibition at 0.4 ppm ([3]; Compound 3 alone): 84%

Compound: CCON=C1CN(C(=O)C(OC)c2ccc(-c3noc(C(F)(F)F)n3)cc2)C1 (stereo not shown) [Compound 5]
- inhibition at 6.3 ppm [1]: 61%
- inhibition at 12.5 ppm [1]: 68%
- inhibition at 25 ppm [1]: 68%
- inhibition at 50 ppm [1]: 64%
- inhibition at 100 ppm [1]: 72%
- control value [2, 4]: 7%
- control value ([2]; component (I) alone, 0.025 ppm): 18%
- control value ([2]; component (I) alone, 0.1 ppm): 46%
- control value ([2]; component (I) alone, 0.4 ppm): 90%
- inhibition at 0.025 ppm ([3]; Compound 5 alone): 4%
- inhibition at 0.1 ppm ([3]; Compound 5 alone): 76%
- inhibition at 0.4 ppm ([3]; Compound 5 alone): 90%

Compound: CCON=C1CN(C(=O)C(C)c2ccc(-c3noc(C(F)(F)F)n3)cc2)C1 (stereo not shown) [Compound 6]
- inhibition at 6.3 ppm [1]: 47%
- inhibition at 12.5 ppm [1]: 58%
- inhibition at 25 ppm [1]: 63%
- inhibition at 50 ppm [1]: 64%
- inhibition at 100 ppm [1]: 69%
- control value [2, 4]: 19%
- control value ([2]; component (I) alone, 0.025 ppm): 49%
- control value ([2]; component (I) alone, 0.1 ppm): 76%
- control value ([2]; component (I) alone, 0.4 ppm): 98%
- inhibition at 0.025 ppm ([3]; Compound 6 alone): 32%
- inhibition at 0.1 ppm ([3]; Compound 6 alone): 67%
- inhibition at 0.4 ppm ([3]; Compound 6 alone): 86%

Compound: COc1ccnc(C(=O)N[C@@H](C)C(=O)O[C@@H](C)C(c2ccc(F)cc2)c2ccc(F)cc2)c1OC(C)=O [Florylpicoxamid, florylpicoxamid, reference compound]
- growth inhibition rate ([1]; 0.001 ppm): 80%
- growth inhibition rate ([1]; .0002 ppm (also printed 0002)): 70%
- control value [2, 5]: 27%
- control value [2, 6]: 0%
- control value [2, 7]: 27%
- control value [2, 8]: 27%
- control value [2, 9]: 0%
- growth inhibition rate [3, 10]: 0%
- growth inhibition rate [3, 11]: 0%
- growth inhibition rate [3, 12]: 0%
- growth inhibition rate [3, 13]: 0%
- growth inhibition rate [3, 14]: 0%
- growth inhibition rate [3, 15]: 0%

Compound: Cc1nc2c(F)c(F)ccc2cc1Oc1cccc(F)c1C(C)(C)O [Ipflufenoquin, ipflufenoquin, reference compound]
- growth inhibition rate ([1]; 0.06 ppm): 6%
- growth inhibition rate ([1]; 0.25 ppm): 6%
- growth inhibition rate ([1]; 1 ppm): 22%
- growth inhibition rate [3, 10]: 0%
- growth inhibition rate [3, 11]: 47%
- growth inhibition rate [3, 12]: 47%
- growth inhibition rate [3, 13]: 47%
- growth inhibition rate [3, 14]: 47%
- growth inhibition rate [3, 15]: 47%

Compound: inpyrfluxam [reference compound]
- growth inhibition rate ([1]; 0.01 ppm): 24%
- growth inhibition rate ([1]; 0.04 ppm): 49%
- control value [2, 5]: 16%
- control value [2, 6]: 50%
- control value [2, 7]: 16%
- control value [2, 8]: 16%
- control value [2, 9]: 50%

Compound: mancozeb
- growth inhibition rate ([1]; 0.004 ppm): 9%
- growth inhibition rate ([1]; 0.02 ppm): 19%
- growth inhibition rate ([1]; 0.06 ppm): 19%
- control value [2, 6]: 0%
- control value [2, 9]: 0%
